Results published in EP3685668B1, “COMPOSITION COMPRISING ACIBENZOLAR-S-METHYL AS EFFECTIVE INGREDIENT FOR CONTROLLING BURSAPHELENCHUS XYLOPHILUS DISEASE AND METHOD FOR CONTROLLING BURSAPHELENCHUS XYLOPHILUS USING SAME” (Industry Foundation of Chonnam National University, priority 2017, dated 2019).

Experiments:
[1] = tested on: Bursaphelenchus xylophilus; test: Occurrence of pine wilt disease after trunk injection of induced resistance candidate materials, in vivo test in young red pine trees; conditions: red pine tree (Pinus densiflora), 30 days after inoculation; for Occurrence rate of pine wilt disease: Number of pine trees showing wilt symptoms / Number of pine trees used for the test: trunk injection 100 µℓ per tree; for Number of pine trees showing wilt symptoms only at growing points of a stem: trunk injection
Outline: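 Two-year-old Pinus densiflora seedlings received 100 µℓ trunk injection of elicitor at 200, 20 or 2 µg/mℓ, 5–10 cm above soil. One week later, 2,000 Botrytis-reared nematodes were bark-inoculated per tree; disease occurrence scored 30 days post-inoculation.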

Metallothionein = test: qRT-PCR expression of induced resistance gene in pine tree callus; type: cell-based; conditions: 200 µg/mℓ, 24 hours
Experimental: (§1) For in vitro analysis of induced resistance, the expression of PR genes and other plant defense-related genes was determined, which are evolved in various defense mechanisms including induced resistance. The primers of sixteen induced resistance-related genes of pine tree used in this invention were listed in the below and elongation factor_1 alpha were used as a reference gene. [Table 4] The primer list of defense resistance-related genes
(§2) After the treatment with 200 µg / mℓ of candidates of the selected induced resistance material, expression of the induced resistance-related gene in pine callus was determined by qRT-PCR using the primer pairs of defense resistance-related genes in Table 4. As a candidate group of an induced resistance material in pine tree, acibenzolar-S-methyl (ASM), TDL (Tiadinil), ITL (Isotianil), PBZ (Probenzole), AZO (Azoxystrobin), VMA (Validamycin A), MeJA (Methyl jasmonate), BABA (DL-3-aminobutyric acid), 2,3-BDO (2,3-Butanediol), GABA (r-Aminobutyric acid), glucan (Glucan), ER (Ergosterol), and AZA (Azelaic acid) were used. For the in vitro analysis of the expression of induced resistance gene in pine callus, the selected induced resistance materials were applied with 500 µℓ of LM liquid medium on a surface of pine tree callus (100 mg) in 12-well microplate to give final concentration of 200 µg/mℓ. Then, the callus surface was sufficiently reacted for 24 hours with the candidate of pine tree induced resistance material by shaking at 50 rpm in a 25 °C shaking incubator under dark condition. RNAs were extracted from the callus after completion of the reaction with an induced resistance material, followed by synthesis of cDNAs. Then, by carrying out qRT-PCR, the expression of induced resistance genes was determined. [Table 5] Expression of induced resistance gene in pine tree callus by TDL, PBZ, ASM, ITL, AZO, VMA, glucan, and AZA
(§3) Based on the results of assay using young plants and gene expression by selected induce resistance materials, it seemed that acibenzolar-S-methyl had the most excellent effect. Thus, the following tests were carried out using acibenzolar-S-methyl only. Expression of the induced resistance genes at different culture time after the chemical treatment was examined. For the in vitro assay, LM medium containing pine tree callus was treated with acibenzolar-S-methyl at concentration of 200 µg / mℓ, followed by reaction for 1 day, 7 days, or 14 days in a 25°C shaking incubator under dark condition. RNAs were extracted from the callus after the reaction followed by synthesis of cDNAs. Then, by carrying out qRT-PCR, the expression of the induced resistance genes was determined. Depending on reaction time after the treatment, i.e., after 1 day, 7 days, or 14 days, the expression of the obtained induced resistance genes was examined. As a result of the in vitro callus assay depending on reaction time after the treatment with acibenzolar-S-methyl, the expression of the induced resistance-related genes is the highest at 1 day after the treatment with acibenzolar-S-methyl and gradually diminished over time, as it is shown in Table 7. In this regard, it is contemplated that the expression of genes acquired by acibenzolar-S-methyl is not maintained in highly expressed state until the pathogen invasion and just memorized with at minimum level so that the energy consumption by plant can be efficiently managed. [Table 7] Expression of induced resistance gene in pine tree callus by acibenzolar-S-methyl depending on reaction time
(§4) To have an in vitro assay according to different methods of treatment with acibenzolar-S-methyl, two separate treatment methods, i.e., surface treatment (spraying treatment) of pine tree callus and direct application of the induced resistance material to an LM medium containing pine tree callus, were performed. […]

Hydroxyproline = test: as above; type: cell-based; conditions: 200 µg/mℓ, 24 hours
Experimental: as §1, §2, §3, §4

Heat shock 70 = test: as above; type: cell-based; conditions: 200 µg/mℓ, 24 hours
Experimental: as §1, §2, §3, §4

Antipeptide = test: as above; type: cell-based; conditions: 200 µg/mℓ, 24 hours
Experimental: as §1, §2, §3, §4

PR_3 family class 1 = test: as above; type: cell-based; conditions: 200 µg/mℓ, 24 hours
Experimental: as §1, §2, §3, §4

PR_3 family class 4 = test: as above; type: cell-based; conditions: 200 µg/mℓ, 24 hours
Experimental: as §1, §2, §3, §4

Xyloglucan = test: as above; type: cell-based; conditions: 200 µg/mℓ, 24 hours
Experimental: as §1, §2, §3, §4

PR_2 family = test: as above; type: cell-based; conditions: 200 µg/mℓ, 24 hours
Experimental: as §1, §2, §3, §4

PR_4 family = test: as above; type: cell-based; conditions: 200 µg/mℓ, 24 hours
Experimental: as §1, §2, §3, §4

PR_9 family = test: as above; type: cell-based; conditions: 200 µg/mℓ, 24 hours
Experimental: as §1, §2, §3, §4

Compound | Occurrence rate of pine wilt disease: Number of pine trees showing wilt symptoms / Number of pine trees used for the test ([1]; 2 µg/mℓ) | Occurrence rate of pine wilt disease: Number of pine trees showing wilt symptoms / Number of pine trees used for the test ([1]; 20 µg/mℓ) | Occurrence rate of pine wilt disease: Number of pine trees showing wilt symptoms / Number of pine trees used for the test ([1]; 200 µg/mℓ) | Number of pine trees showing wilt symptoms only at growing points of a stem ([1]; 20 µg/mℓ) | Number of pine trees showing wilt symptoms only at growing points of a stem ([1]; 200 µg/mℓ) | Expression of induced resistance gene, Metallothionein (Metallothionein) | Expression of induced resistance gene, Hydroxyproline (Hydroxyproline) | Expression of induced resistance gene, Heat shock 70 (Heat shock 70) | Expression of induced resistance gene, Antipeptide (Antipeptide) | Expression of induced resistance gene, PR_3 family class 1 (PR_3 family class 1) | Expression of induced resistance gene, PR_3 family class 4 (PR_3 family class 4) | Expression of induced resistance gene, Xyloglucan (Xyloglucan) | Expression of induced resistance gene, PR_2 family (PR_2 family) | Expression of induced resistance gene, PR_4 family (PR_4 family) | Expression of induced resistance gene, PR_9 family (PR_9 family) | Number of pine trees showing wilt symptoms only at growing points of a stem ([1]; 2 µg/mℓ)
CO/C=C(/C(=O)OC)c1ccccc1Oc1cc(Oc2ccccc2C#N)ncn1 [AZO, Azoxystrobin] | 0/3 | 2/2 | 2/3 | 1 | 2 | 0.14 | 1.11 | 0.38 | 0.69 | 1.11 | 1.01 | 1.93 | 1.8 | 2.04 | 1.92 | 
CC(C)[C@@H](C)/C=C/[C@@H](C)[C@H]1CC[C@H]2C3=CC=C4C[C@@H](O)CC[C@]4(C)[C@H]3CC[C@]12C [ER, Ergosterol] | 3/3 | 0/3 | 1/3 |  |  | 1.37 | 1.42 | 1.91 | 2.11 | 1.06 | 0.81 | 1.05 | 1.17 | 1.13 | 1.35 | 1
NCCCC(=O)O [GABA, r-Aminobutyric acid] | 3/3 | 1/3 | 0/3 | 1 |  | 0.92 | 5.98 | 2.58 | 1.13 | 3.07 | 8.75 | 3.46 | 1.66 | 1.95 | 0.7 | 1
N#Cc1ccccc1NC(=O)c1snc(Cl)c1Cl [ITL, Isotianil] | 2/3 | 2/3 | 1/3 | 2 | 1 | 0.09 | 0.72 | 0.43 | 0.75 | 0.95 | 0.81 | 0.97 | 1.48 | 1.39 | 1.88 | 1
